pEC50: −log10 of the molar value. Like-named read-outs stand apart in the source and are kept apart here.
What was measured:
[1] = molecular target: T1, human cannabinoid receptor type 2 (Homo sapiens, UniProt P34972); test: Human CB2 Radioligand Binding Assay; details: membranes from stably transfected CHO CB2 cells
T1 construct: expressed in transfected cells; membrane preparation
In short: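 Test compounds (10 uM final, or dose-response) competed with [3H]CP-55,940, used at the Kd determined per membrane lot, for binding to stable human CB2-CHO membranes over 90 min at 30° C in pH 7.4 Tris/EGTA/MgCl2/BSA buffer. GF/C filtration then scintillation counting; 100 nM CP-55,940 defined 100% efficacy.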

[2] = molecular target: T2, human cannabinoid receptor type 1 (Homo sapiens, UniProt P21554); test: Human CB1 Radioligand Binding Assay (basis of selectivity, CB2 vs. CB1); details: CB1: HEK 293 EBNA cells expressing human CB1; CB2: CHO CB2 membranes
T2 construct: purchased Perkin Elmer RBHCB1M; host or cells: HEK 293 EBNA cells
Experimental: 2. Human CB1 Radioligand Binding Assay
The incubation buffer was composed of 50 mM Tris-HCl pH 7.4, 2.5 mM EDTA, 5 mM MgCl2, 5.0 mg/ml fatty acid free BSA and the wash buffer was composed of 50 mM Tris-HCl pH 7.4, 2.5 mM EDTA, 5 mM MgCl2, 0.5 mg/ml fatty acid free BSA.

[3] = competition with [3H] CP-55,940, read-out: CB2 Ligand Binding Asssay EC50
[4] = CB2 Ligand Binding Asssay EC50, competition with [3H] CP-55,940

T2 sequence (P21554 whole entry): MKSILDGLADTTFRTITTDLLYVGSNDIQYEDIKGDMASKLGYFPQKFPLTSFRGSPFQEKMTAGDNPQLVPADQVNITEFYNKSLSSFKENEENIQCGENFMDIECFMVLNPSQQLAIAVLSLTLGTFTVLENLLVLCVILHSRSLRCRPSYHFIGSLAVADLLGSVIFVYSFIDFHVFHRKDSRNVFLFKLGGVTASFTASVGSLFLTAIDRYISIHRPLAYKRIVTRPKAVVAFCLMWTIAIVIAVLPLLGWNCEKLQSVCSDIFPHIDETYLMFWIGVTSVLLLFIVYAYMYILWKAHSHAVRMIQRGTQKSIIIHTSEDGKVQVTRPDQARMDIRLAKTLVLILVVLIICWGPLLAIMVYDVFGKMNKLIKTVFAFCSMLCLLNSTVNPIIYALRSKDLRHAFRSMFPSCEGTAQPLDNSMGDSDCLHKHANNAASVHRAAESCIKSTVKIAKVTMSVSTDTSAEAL
T1 sequence (P34972 whole entry): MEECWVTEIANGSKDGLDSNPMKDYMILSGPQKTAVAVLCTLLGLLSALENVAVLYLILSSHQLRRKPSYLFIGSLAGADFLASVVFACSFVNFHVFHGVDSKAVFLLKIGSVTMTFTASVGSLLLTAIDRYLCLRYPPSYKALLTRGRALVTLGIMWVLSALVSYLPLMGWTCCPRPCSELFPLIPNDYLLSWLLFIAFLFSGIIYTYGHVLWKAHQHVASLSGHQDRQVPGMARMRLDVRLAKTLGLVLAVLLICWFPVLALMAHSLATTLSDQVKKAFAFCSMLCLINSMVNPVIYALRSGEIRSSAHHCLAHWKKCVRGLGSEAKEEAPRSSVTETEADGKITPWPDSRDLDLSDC

Compound | pEC50 [1, 3] | Selectivity, CB2 vs. CB1 [2] | pEC50 [1, 4]
Clc1ccc2c(N3CCCC3)nc(C3CCCCC3)nc2c1 [Example 160, 7-Chloro-2-cyclohexyl-4-(pyrrolidin-1-yl)quinazoline] | > 6.00 | − (− indicates ≦ 10−fold) | 
CN1CCN(c2nc(C3CCCCC3)nc3ccc(Cl)cc23)CC1 [Example 161, 6-Chloro-2-cyclohexyl-4-(4-methylpiperazin-1-yl)quinazoline] | > 6.00 | − (− indicates ≦ 10−fold) | 
COc1ccc2nc(C3CCCCC3)nc(N3CCCC3)c2c1 [Example 162, 2-Cyclohexyl-6-methoxy-4-(pyrrolidin-1-yl)quinazoline] | > 6.00 | + (+ indicates > 10−fold) | 
COc1ccc2nc(C3CCCCC3)nc(N3CCN(C)CC3)c2c1 [Example 163, 2-Cyclohexyl-6-methoxy-4-(4-methylpiperazin-1-yl)quinazoline] | > 6.00 | − (− indicates ≦ 10−fold) | 
Clc1ccc2c(N3CCCCC3)nc(C3CCCCC3)nc2c1 [Example 164, 7-Chloro-2-cyclohexyl-4-(piperidin-1-yl)quinazoline] | > 6.00 | + (+ indicates > 10−fold) | 
Clc1ccc2c(N3CCOCC3)nc(C3CCCCC3)nc2c1 [Example 165, 4-(7-Chloro-2-cyclohexylquinazolin-4-yl)morpholine] |  | + (+ indicates > 10−fold) | < 6.00
CN1CCN(c2nc(C3CCCCC3)nc3cc(Cl)ccc23)CC1 [Example 166, 7-Chloro-2-cyclohexyl-4-(4-methylpiperazin-1-yl)quinazoline] | > 6.00 | + (+ indicates > 10−fold) | 
Clc1ccc2nc(C3CCCCC3)nc(N3CCCC3)c2c1 [Example 167, 6-Chloro-2-cyclohexyl-4-(pyrrolidin-1-yl)quinazoline] | > 6.00 | + (+ indicates > 10−fold) | 
CN1CCN(c2nc(-c3ccccc3Cl)nc3ccc(C(C)(C)C)cc23)CC1 [Example 168, 6-tert-Butyl-2-(2-chlorophenyl)-4-(4-methylpiperazin-1-yl)quinazoline] | > 6.00 | + (+ indicates > 10−fold) | 
CC(C)(C)c1ccc2nc(-c3ccccc3Cl)nc(N3CCSCC3)c2c1 [Example 169, 4-(6-tert-Butyl-2-(2-chlorophenyl)quinazolin-4-yl)thiomorpholine] | > 6.00 | + (+ indicates > 10−fold) | 
CC(C)(C)c1ccc2nc(-c3ccccc3Cl)nc(N3CCCCC3)c2c1 [Example 170, 6-tert-Butyl-2-(2-chlorophenyl)-4-(piperidin-1-yl)quinazoline] | > 6.00 | + (+ indicates > 10−fold) | 
CC(C)(C)c1ccc2nc(-c3ccccc3Cl)nc(N3CCCC3)c2c1 [Example 171, 6-tert-Butyl-2-(2-chlorophenyl)-4-(pyrrolidin-1-yl)quinazoline] | > 6.00 | + (+ indicates > 10−fold) | 
COc1ccc2nc(-c3ccccc3Cl)nc(N3CCSCC3)c2c1 [Example 172, 4-(2-(2-Chlorophenyl)-6-methoxyquinazolin-4-yl)thiomorpholine] | > 6.00 | + (+ indicates > 10−fold) | 
CCc1ccc2nc(-c3ccccc3Cl)nc(N3CCN(C)CC3)c2c1 [Example 173, 2-(2-Chlorophenyl)-6-ethyl-4-(4-methylpiperazin-1-yl)quinazoline] | > 6.00 | + (+ indicates > 10−fold) | 
CCc1ccc2nc(-c3ccccc3Cl)nc(N3CCSCC3)c2c1 [Example 174, 4-(2-(2-Chlorophenyl)-6-ethylquinazolin-4-yl)thiomorpholine] | > 6.00 | + (+ indicates > 10−fold) | 
CCc1ccc2nc(-c3ccccc3Cl)nc(N3CCCCC3)c2c1 [Example 175, 2-(2-Chlorophenyl)-6-ethyl-4-(piperidin-1-yl)quinazoline] | > 6.00 | − (− indicates ≦ 10−fold) | 
CCc1ccc2nc(-c3ccccc3Cl)nc(N3CCCC3)c2c1 [Example 176, 2-(2-Chlorophenyl)-6-ethyl-4-(pyrrolidin-1-yl)quinazoline] | > 6.00 | + (+ indicates > 10−fold) | 
COc1ccc2nc(-c3ccccc3Cl)nc(N3CCN(C)CC3)c2c1 [Example 177, 2-(2-Chlorophenyl)-6-methoxy-4-(4-methylpiperazin-1-yl)quinazoline] | > 6.00 | − (− indicates ≦ 10−fold) | 

Compound | pEC50 [1, 3] | Selectivity, CB2 vs. CB1 [2] | pEC50 [1, 4]
COc1ccc2nc(-c3ccccc3Cl)nc(N3CCCCC3)c2c1 [Example 178, 2-(2-Chlorophenyl)-6-methoxy-4-(piperidin-1-yl)quinazoline] | > 6.00 | − (− indicates ≦ 10−fold) | 
COc1ccc2nc(-c3ccccc3Cl)nc(N3CCCC3)c2c1 [Example 179, 2-(2-Chlorophenyl)-6-methoxy-4-(pyrrolidin-1-yl)quinazoline] | > 6.00 | + (+ indicates > 10−fold) | 
CN1CCN(c2nc(-c3ccccc3Cl)nc3ccc(OC(F)(F)F)cc23)CC1 [Example 180, 2-(2-Chlorophenyl)-4-(4-methylpiperazin-1-yl)-6-(trifluoromethoxy) quinazoline] | > 6.00 | − (− indicates ≦ 10−fold) | 
FC(F)(F)Oc1ccc2nc(-c3ccccc3Cl)nc(N3CCCCC3)c2c1 [Example 181, 2-(2-Chlorophenyl)-4-(piperidin-1-yl)-6-(trifluoromethoxy) quinazoline] | < 6.00 | − (− indicates ≦ 10−fold) | 
FC(F)(F)Oc1ccc2nc(-c3ccccc3Cl)nc(N3CCCC3)c2c1 [Example 182, 2-(2-Chlorophenyl)-4-(pyrrolidin-1-yl)-6-(trifluoromethoxy) quinazoline] |  | − (− indicates ≦ 10−fold) | < 6.00
Clc1ccccc1-c1nc(N2CCCC2)c2cc(Br)ccc2n1 [Example 184, 6-Bromo-2-(2-chlorophenyl)-4-(pyrrolidin-1-yl)quinazoline] | > 6.00 | − (− indicates ≦ 10−fold) | 
CC(=O)N1CCN(c2nc(C3CCCCC3)nc3ccc(Cl)cc23)CC1 [Example 185, 1-(4-(6-Chloro-2-cyclohexylquinazolin-4-yl)piperazin-1-yl)ethanone] | > 6.00 | − (− indicates ≦ 10−fold) | 
COc1ccc2nc(C3CCCCC3)nc(N3CCN(C(C)=O)CC3)c2c1 [Example 186, 1-(4-(2-Cyclohexyl-6-methoxyquinazolin-4-yl)piperazin-1-yl)ethanone] | > 6.00 | − (− indicates ≦ 10−fold) | 
Cc1ccccc1-c1nc(N2CCCCC2)c2ccccc2n1 [Example 187, 4-Piperidin-1-yl-2-o-tolylquinazoline] | < 6.00 | − (− indicates ≦ 10−fold) | 
Clc1ccccc1-c1nc(NCC2CCCO2)c2ccccc2n1 (stereo not drawn) [Example 188, 2-(2-Chlorophenyl)-N-((tertrahydrofuran-2-yl)methyl)quinzaoline-4-amine] | < 6.00 | − (− indicates ≦ 10−fold) | 
CC(C)(C)CCNc1nc(-c2ccccc2Cl)nc2ccccc12 [Example 189, 2-(2-Chlorophenyl)-N-(3,3-dimethylbutyl)quinazolin-4-amine] | < 6.00 | − (− indicates ≦ 10−fold) | 
Clc1ccccc1-c1nc(NCC23CC4CC(CC(C4)C2)C3)c2ccccc2n1 [Example 190, 2-(2-Chlorophenyl)-N-(1-adamanthylmethyl)quinazolin-4-amine] | < 6.00 | − (− indicates ≦ 10−fold) | 
Clc1ccccc1-c1nc(NCCc2ccccn2)c2ccccc2n1 [Example 191, 2-(2-Chlorophenyl)-N-(2-(pyridine-2-yl)ethyl)quinazolin-4-amine] | < 6.00 | − (− indicates ≦ 10−fold) | 
Clc1ccccc1-c1nc(NCCCN2CCOCC2)c2ccccc2n1 [Example 192, 2-(2-Chlorophenyl)-N-(3-morpholinopropyl)quinazolin-4-amine] | < 6.00 | − (− indicates ≦ 10−fold) | 
Clc1ccccc1-c1nc(NCC2CCCCC2)c2ccccc2n1 [Example 193, 2-(2-Chlorophenyl)-N-(cyclohexylmethyl)quinazolin-4-amine] |  | − (− indicates ≦ 10−fold) | < 6.00
CN(CC1CCCCC1)c1nc(-c2ccccc2Cl)nc2ccccc12 [Example 194, 2-(2-Chlorophenyl)-N-(cyclohexylmethyl)-N-methylquinazolin-4-amine] | > 6.00 | − (− indicates ≦ 10−fold) | 
FC(F)(F)c1ccc(Cc2nc(N3CCCCC3)c3ccccc3n2)cc1 [Example 195, 4-(Piperidin-1-yl)-2-(4-(trifluoromethyl)benzyl)quinazoline] | < 6.00 | − (− indicates ≦ 10−fold) | 
CCOC(=O)N1CCN(c2nc(Cc3cccc(OC)c3)nc3ccccc23)CC1 [Example 196, Ethyl 4-(2-(3-Methoxybenzyl)quinazolin-4-yl)piperazine-1-carboxylate] | < 6.00 | − (− indicates ≦ 10−fold) | 
